Data as given in US20120083464A1, “NEUROPROTECTIVE PROPERTIES OF 5'-METHYLTHIOADENOSINE” (priority 2009, published 2012).
“Also recorded” adds a separate entry of the source.

How the values were obtained:
[1] = test system: mixed cultures of neurons and astrocytes from the cerebral cortex; assay: Cell toxicity and viability assays (calcein-AM, LDH) in neuron-astrocyte co-cultures; type: cell-based; conditions: MTA 10 μM-1 mM for 24 hours
Excerpt: Primary neuron cultures were obtained from the cortical lobes of E18 Sprague-Dawley rat embryos according to previously described procedures (Cheung et al., 1998, Neuropharmacology 37:1419-1429). The cells were resuspended in B27 Neurobasal medium plus 10% FBS and then seeded in 24-well plates at 1-2×10^5 cells per well onto a monolayer of astrocytes which were previously prepared as described earlier (Vallejo-Illarramendi et al., 2005, Glia 50:276-279). One day later, the medium was replaced by B27-supplemented Neurobasal medium and 10% fetal bovine serum, and maintained at 37° C. and 5% CO2. Cultures were used 8-9 days after plating. Cultured neurons and astrocytes were identified using antibodies to microtubule associated protein-2 and glial fibrillary acidic protein, respectively.
Cell death and cell viability in neuron-astrocyte co-cultures was assayed after 24 h of exposure to MTA (10 μM to 1 mM) using lactate dehydrogenase and calcein-AM assays respectively followed by fluorimetry measurements (Synergy-HT). The results are expressed as percentage of viable cells or LDH release versus controls, as the mean±SEM of at least four independent experiments performed in triplicate. […]

[2] = test system: dopaminergic neurons (TH+ cells) in the substantia nigra; assay: MPTP mice model of Parkinson disease, TH immunohistochemistry; type: in vivo, C57B1 mice
Description: Male C57B1 mice, with a body ranging in weight from 23 to 31 g were used in this study. MPTP (Sigma) dissolved in 0.9% NaCl was injected intraperitonealy at a dose of 30 mg/kg for 5 days. MTA was dissolved in purified water with 2% of DMSO at a final concentration of 6 mg/ml and was injected intraperitonealy at a dose of […] or 192 μmol/Kg. The first day of the experiment MTA was injected 24 hours before the MPTP injection and during the following four days administration of MTA was 1 hour before the administration of MPTP. Mice were divided in four groups: (1) MPTP (n=6); (2) MPTP plus 96 μmol/Kg MTA (n=6); (3) MPTP plus 192 μmol/Kg MTA (n=9) and (4) Control group (n=2).
At the end of the experiment, animals were anesthetized with an overdose of 10% chloral hydrate in distilled water and then transcardially perfused with saline Ringer's solution followed by 100 ml of a cold fixative solution containing 4% paraformaldehyde and 0.4% glutaraldehyde in 0.125 M PB, pH 7.4. After perfusion, the skull was opened and the brain removed was post-fixed overnight at 4° C. in the same fixative solution and next stored in a cryoprotective solution containing 20% glycerine and 2% dimethylsulphoxide in 0.125 M PB, pH 7.4. Frozen coronal microtome sections (50 μm-thick) were obtained and collected in 0.125 M PB, pH 7.4, in 6 series of adjacent sections. Sections were stored at −80° C. until further processing.
With a random start, every third sections through the entire SN were sampled. The sections were processed free-floating. Endogenous peroxidase activity was removed by incubating the sections in methanol with 1.25% H2O2 for 40 min. […] Histological quantification was done using the CAST system from Olympus using the BX50 microscope and following the methods described by Oorschot (J Comp Neurol 366:580-599, 1996). […] Neurons were counted using the optic dissector every 3 sections at 150 μm distance and at ×400. […]

[3] = test system: Corticospinal tract-YFP mice with chronic EAE; assay: Chronic EAE (model of progressive multiple sclerosis), clinical score and axonal density; type: in vivo, mice (C57B6 background)
Excerpt: Chronic EAE was induced in Corticospinal tract-YFP mice (C57B6 background; see Bareyre et al., Nat Med. 2005 December; 11(12):1355-60) immunized with MOG. The fluorescence labelling of motor axons, allows an accurate quantification of axonal damage during EAE.
1. Align spinal cords of all animals and cut out the following pieces of the spinal cord at the same level in all animals: a) a piece of the cervical spinal cord (about 1 cm in length) starting around at the upper cervical level around C1/2 (this will allow you to determine the number of CST fibers that enter the spinal cord); b) a piece of the lumbar spinal cord (about 1 cm in length) starting around the mid-lumbar level L2/3 (this will allow you to determine the number of fibers that reach the lumbar spinal cord).
5. Mount the tissue and analyze the sections using confocal microscopy—use a high-resolution objectives e.g. a 60× oil objective and take a single image plan covering the entire corticospinal tract.
6. Then simple count the number of dots (=number of fibers)—we usually do this blinded on 3-5 sections and then calculate the average for the CST as the CST—especially in the cervical spinal cord which contains many fibers it might be easier to estimate the total number of cervical CST fibers based on counts of several CST areas with a defined size. […]

CSC[C@H]1O[C@@H](n2cnc3c(N)ncnc32)[C@H](O)[C@@H]1O [MTA, 5′-methylthioadenosine]
astrocyte resistance and viability to MTA [1]: resistant and viable
toxicity (cell viability by calcein fluorescence; cell death by LDH release) ([1]; neurons in co-culture): very low; also recorded: not toxic
reduction in the number of TH (dopaminergic) neurons compared to controls ([2]; MPTP 30 mg/kg for 5 days plus MTA 96 μM/day (so in the source)): 10%
higher number of dopaminergic neurons than MPTP treated animals ([2]; MPTP plus MTA 96 μM/day (so in the source)): 30%
number of TH neurons versus MPTP animals ([2]; MPTP plus MTA (96 μM as printed)): significantly higher number of TH neurons
clinical symptoms (EAE clinical score) versus placebo ([3]; MTA 96 μMol/Kg i.p. daily from first day with EAE score of 2 or higher): amelioration of the clinical symptoms
axonal density in lumbar and cervical spinal cord versus placebo ([3]; MTA 96 μMol/Kg i.p. daily, chronic phase): significantly higher axonal density
